Results on 19 compounds are retold here after patent US6136825A, “Sulfonamide compounds having 5-HT receptor activity” (Knoll Aktiengesellschaft, priority 1996, dated 2000).

Where a name gives a salt, the structure may show the parent alone.

For experiment [1], the target named is T1, D2-like dopamine receptors (Rattus norvegicus, UniProt P61169).
T1 construct: Striatal tissue from the brains of male Charles River CD rats; from tissue; host or cells: rat striatum (male Charles River CD rats), crude membrane pellet
The experiment in a line: inhibition of tritiated (S)-sulpiride binding to D2-like dopamine receptors, rat striatal tissue. Set-up: species or system male Charles River CD rats. The following applies: for Ki: 4° C., 40 minutes, pH 7.7; for inhibition at 1 µM: at 10^-6 M, read-out: % displacement of specific binding, D2-like. The protocol:
Striatal tissue from the brains of male Charles River CD rats weighing between 140-250 g were homogenised in ice-cold 50 mM Tris-HCl buffer (pH 7.7 when measured at 25° C.) and centrifuged at 40,000 g for 10 minutes. The pellet was resuspended in Tris salts buffer (50 mM Tris-HCl buffer containing 120 mM NaCl, 5 mM KCl, 2 mM CaCl2 and 1 mM MgCl2 with the addition of 6 mM ascorbic acid; pH 7.7 when measured at 25° C.), and again centrifuged at 40,000 g for 10 minutes. The final pellet was stored at -80° C. Before each test the pellet was resuspended in Tris salts buffer (equivalent to 2 mg wet weight of tissue/ml). Aliquots (720 μl; equivalent to 1.44 mg wet weight of tissue/tube) of this suspension were then added to tubes containing the ligand (40 μl; 1 nM) and Tris salts buffer (40 μl; total binding) or spiroperidol (40 μl; 10 nM; non-specific binding) or test compound (40 μl; at a single concentration of 10^-6 M or at 6 concentrations ranging from 10^-11 -10^-4 M). The ligand was tritiated (S)-sulpiride and the mixture was incubated at 4° C. for 40 minutes before the incubation was terminated by rapid filtration.
The filters were washed with ice-cold Tris-HCl buffer and dried. The filters were punched out in to vials, scintillation fluid added and were left for about 20 hours before being counted by scintillation spectrophotometry. The percentage displacement of specific binding of the tritiated ligand was calculated for the single concentration (10^-6 M) of test compound. Displacement curves were then produced over a range of concentrations for those compounds which displaced ≥50% of specific binding of the tritiated ligand at 10^-6 M. The concentration which gave a 50% inhibition of specific binding (IC50) was obtained from the curve. The inhibition coefficient Ki was then calculated using the formula [formula] in which [ligand] is the concentration of the tritiated ligand used and KD is the equilibrium dissociation constant for the ligand.

In a further experiment the target is T2, 5-HT1A (Rattus norvegicus, UniProt P19327).
T2 construct: Hippocampal tissue from the brains of male Charles River CD rats; from tissue; host or cells: rat hippocampus (male Charles River CD rats), crude membrane pellet
T2 sequence (P19327 1-422): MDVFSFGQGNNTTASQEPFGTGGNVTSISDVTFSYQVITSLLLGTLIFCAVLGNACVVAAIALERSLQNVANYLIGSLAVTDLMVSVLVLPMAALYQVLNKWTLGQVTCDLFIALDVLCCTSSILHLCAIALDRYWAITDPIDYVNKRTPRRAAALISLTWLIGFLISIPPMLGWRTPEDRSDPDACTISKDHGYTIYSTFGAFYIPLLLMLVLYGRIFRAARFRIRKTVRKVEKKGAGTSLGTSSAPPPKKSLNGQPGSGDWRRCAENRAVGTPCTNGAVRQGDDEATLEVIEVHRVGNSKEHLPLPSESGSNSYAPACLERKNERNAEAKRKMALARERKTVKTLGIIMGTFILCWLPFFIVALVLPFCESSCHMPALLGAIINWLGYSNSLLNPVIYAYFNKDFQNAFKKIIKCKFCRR
The experiment in a line: inhibition of tritiated ligand ([3H]8-OH-DPAT) binding to 5-HT1A receptors, rat hippocampal tissue. On the set-up: species or system male Charles River CD rats. The settings on record: for inhibition at 1 µM: at 10^-6 M, read-out: % displacement of specific binding, 5-HT1A; for Ki: 25° C., 30 minutes, pH 7.7. As for the experimental part: Hippocampal tissue from the brains of male Charles River CD rats weighing between 150-250 g were homogenised in ice-cold 50 mM Tris-HCl buffer (pH 7.7) when measured at 25° C., 1:40 w/v) and centrifuged at 30,000 g at 4° C. for 10 minutes. The pellet was rehomogenised in the same buffer, incubated at 37° C. for 10 minutes and centrifuged at 30,000 g at 4° C. for 10 minutes. The final pellet was resuspended in 50 mM Tris-HCl buffer (pH 7.7) containing 4 mM CaCl2, 0.1% L-ascorbic acid and 10 μM pargyline hydrochloride (equivalent to 6.25 mg wet weight of tissue/ml) and used immediately in the binding assay. Aliquots (400 μl; equivalent to 2.5 mg wet weight of tissue/tube) of this suspension were added to tubes containing the ligand (50 μl; 2 nM) and distilled water (50 μl; total binding) or 5-HT (50 μl; 10 μM; non-specific binding) or test compound (50 μl; at a single concentration of 10^-6 M or at 10 concentrations ranging from 10^-11 -10^-3 M). The ligand was [^3 H]8-hydroxy-2-(dipropylamino)tetralin ([^3 H]8-OH-DPAT) and the mixture was incubated at 25° C. for 30 minutes before the incubation was terminated by rapid filtration.
The filters were washed with ice-cold Tris-HCl buffer and dried. The filters were punched out into vials, scintillation fluid added and radioactivity determined by liquid scintillation counting. The percentage displacement of specific binding of the tritiated ligand was calculated for the single concentration (10^-6 M) of test compound. Displacement curves were then produced for those compounds which displaced ≥50% of specific binding of the tritiated ligand at 10^-6 M using a range of concentrations of the compound. The concentration which gave 50% inhibition of specific binding (IC50) was obtained from the curve. The inhibition coefficient Ki was then calculated using the formula [formula] in which [ligand] is the concentration of the tritiated ligand used and KD Is the equilibrium dissociation constant for the ligand.

T1 sequence (P61169 whole entry): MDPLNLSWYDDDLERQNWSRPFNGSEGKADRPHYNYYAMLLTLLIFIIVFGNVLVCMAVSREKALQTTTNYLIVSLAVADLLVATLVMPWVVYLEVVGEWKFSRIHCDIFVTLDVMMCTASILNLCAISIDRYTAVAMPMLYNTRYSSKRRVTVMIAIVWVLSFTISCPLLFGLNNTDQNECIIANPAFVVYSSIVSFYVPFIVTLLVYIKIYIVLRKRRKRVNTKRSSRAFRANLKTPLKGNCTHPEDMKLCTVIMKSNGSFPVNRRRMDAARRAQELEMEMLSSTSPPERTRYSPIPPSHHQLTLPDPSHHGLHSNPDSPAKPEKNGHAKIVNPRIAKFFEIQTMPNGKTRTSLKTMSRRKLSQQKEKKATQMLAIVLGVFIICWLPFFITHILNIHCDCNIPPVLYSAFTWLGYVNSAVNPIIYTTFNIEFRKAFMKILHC

In experiment [1], `COc1cc(C)c(S(=O)(=O)NCC2CCN(C[C@H]3COc4ccc(Cl)cc4O3)CC2)c(C)c1C` [Example 19, (S)-N-{[1-(7-Chloro-1,4-benzodioxan-2-ylmethyl)-4-piperidyl]methyl}-4-methoxy-2,3,6-trimethylbenzenesulphonamide] had a Ki of 306 nM. In addition, the inhibition at 1 µM on 5-HT1A came to 55%.

For the compound `O=S(=O)(c1ccccn1)N1CCC(CNC[C@H]2COc3ccc(Cl)cc3O2)CC1` [Example 2, (S)-(-)-4-[N-(7-chloro-1,4-benzodioxan-2-ylmethyl)aminomethyl]-1-(2-pyridinesulphonyl)piperidine 0.8 hydrate], the Ki in experiment [1] amounted to 27.9 nM; on 5-HT1A, 11.4 nM.

In experiment [1], `O=S(=O)(NCC1CCN(C[C@H]2COc3ccc(Cl)cc3O2)CC1)c1ccc(C(F)(F)F)cc1` [Example 24, (S)-N-{[1-(7-Chloro-1,4-benzodioxan-2-ylmethyl)-4-piperidyl]methyl}-4-trifluoromethylbenzenesulphonamide] registered a Ki of 533 nM. Besides, at 5-HT1A, the inhibition at 1 µM is 90%.

Take `O=S(=O)(NCC1CCN(C[C@H]2COc3ccc(Cl)cc3O2)CC1)c1ccccc1` [Example 34, (S)-N-{[1-(7-Chloro-1,4-benzodioxan-2-ylmethyl)-4-piperidyl]methyl}benzene-sulphonamide]: the Ki in experiment [1] was 88 nM. Further, the inhibition at 1 µM at 5-HT1A is 87%.

For `O=S(=O)(NCC1CCN(C[C@H]2COc3ccc(Cl)cc3O2)CC1)c1ccc(F)c(Cl)c1` [Example 42, (S)-(-)-3-Chloro-N-{[1-(7-chloro-1,4-benzodioxan-2-ylmethyl)-4-piperidyl]methyl}-4-fluoro-benzenesulphonamide], the results for the inhibition at 1 µM (in experiment [1]; on 5-HT1A) were 84% and 80%, respectively.

With `CCN(CC)c1cccc2c(S(=O)(=O)NCC3CCN(C[C@H]4COc5ccc(Cl)cc5O4)CC3)cccc12` [Example 23, (S)-N-{[1-(7-Chloro-1,4-benzodioxan-2-ylmethyl)-4-piperidyl]methyl}-5-(diethylamino)naphthalene-1-sulphonamide], the values for the inhibition at 1 µM (in experiment [1]; on 5-HT1A) were 83% and 82%, respectively.

With `O=S(=O)(NCC1CCN(C[C@H]2COc3ccc(Cl)cc3O2)CC1)c1ccccn1` [Example 1, (S)-(-)-N-{[1-(7-chloro-1,4-benzodioxan-2-ylmethyl)-4-piperidyl]methyl}pyridine-2-sulphonamide monohydrochloride 0.6 hydrate], the inhibitory constant (Ki) in experiment [1] was found to be 29.4 nM; at 5-HT1A, 86.8 nM.

Consider `O=S(=O)(NCC1CCN(C[C@H]2COc3ccc(Cl)cc3O2)CC1)c1cc2nnoc2c2ccccc12` [Example 20, (S)-N-{[1-(7-Chloro-1,4-benzodioxan-2-ylmethyl)-4-piperidyl]methyl}naphth [2,1-d][1,2,3]oxadiazole-5-sulphonamide], for which affinity in experiment [1] was put at a Ki of 235 nM. The inhibition at 1 µM at 5-HT1A is 75%.

As for `O=S(=O)(NCC1CCN(C[C@H]2COc3ccc(Br)cc3O2)CC1)c1cccc(Cl)c1Cl` [Example 13, (S)-(-)-N-{[1-(7-bromo-1,4-benzodioxan-2-ylmethyl)-4-piperidyl]methyl}-2,3-dichlorobenzensulphonamide], the results for the Ki (in experiment [1]; on 5-HT1A) were 102 nM and 20 nM, respectively.

Compound `Cc1ccc(S(=O)(=O)NCC2CCN(C[C@H]3COc4ccc(Cl)cc4O3)CC2)cc1` [Example 33, (S)-N-{[1-(7-Chloro-1,4-benzodioxan-2-ylmethyl)-4-piperidyl]methyl}-4-methylbenzenesulphonamide] returned an inhibition constant Ki in experiment [1] of 301 nM. Also, the inhibition at 1 µM at 5-HT1A was 91%.

Regarding `O=[N+]([O-])c1ccc(S(=O)(=O)NCC2CCN(C[C@H]3COc4ccc(Cl)cc4O3)CC2)cc1` [Example 4, (S)-(-)-N-{[1-(7-chloro-1,4-benzodioxan-2-ylmethyl)-4-piperidyl]-methyl}-4-nitrobenzenesulphonamide], the inhibition constant (Ki) in experiment [1] was 105 nM; on 5-HT1A it was 15 nM.

For `O=S(=O)(NCC1CCN(C[C@H]2COc3ccc(C(F)(F)F)cc3O2)CC1)c1ccccn1` [Example 12, (S)-(-)-N-J[1-(7-trifluoromethyl-1,4-benzodioxan-2-ylmethyl)-4-piperidyl]methyl,pyridine-2-sulphonamide], the figures for the Ki (in experiment [1]; at 5-HT1A) were 28.7 nM and 30 nM, respectively.

`O=S(=O)(NCC1CCN(C[C@H]2COc3ccc(Cl)cc3O2)CC1)c1ccc(I)cc1` [Example 18, (S)-N-{[1-(7-Chloro-1,4-benzodioxan-2-ylmethyl)-4-piperidyl]methyl}-4-iodo-benzenesulphonamide] gave a Ki in experiment [1] of 227 nM. For the same compound, the inhibition at 1 µM on 5-HT1A stood at 90%.

`O=S(=O)(NCC1CCN(C[C@H]2COc3ccc(Cl)cc3O2)CC1)c1cc(Br)ccc1Br` [Example 36, (S)-2,5-Dibromo-N-{[1-(7-Chloro-1,4-benzodioxan-2-ylmethyl)-4-piperidyl]methyl}-benzenesulphonamide] returned an inhibition constant (Ki) in experiment [1] of 487 nM. The inhibition at 1 µM at 5-HT1A was 68%.

In the case of `COc1ccc(S(=O)(=O)NCC2CCN(C[C@H]3COc4ccc(Cl)cc4O3)CC2)cc1OC` [Example 6, (S)-(-)-N-{[1-(7-chloro-1,4-benzodioxan-2-ylmethyl)-4-piperidyl]methyl}-3,4-dimethoxybenzenesulphonamide], the Ki in experiment [1] came to 40.2 nM; on 5-HT1A, 20 nM.

Consider `O=S(=O)(NCC1CCN(C[C@H]2COc3ccc(Br)cc3O2)CC1)c1ccc(F)cc1F` [Example 47, (S)-(-)-N-{[1-(7-Bromo-1,4-benzodioxan-2-ylmethyl)-4-piperidyl]methyl}-2,4-difluorobenzenesulphonamide], for which the inhibition constant Ki amounted to 48 nM in experiment [1] and 16 nM on 5-HT1A.

`O=S(=O)(NCC1CCN(C[C@H]2COc3ccc(Cl)cc3O2)CC1)c1c(F)c(Br)cc(F)c1Br` [Example 39, (S)-2,5-Dibromo-N-{[1-(7-chloro-1,4-benzodioxan-2-ylmethyl)-4-piperidyl]methyl}-3,6-difluorobenzenesulphonamide] showed an inhibitory constant (Ki) in experiment [1] of 438 nM. Also, the inhibition at 1 µM on 5-HT1A was 98%.

As to `CC(=O)Nc1ccc(S(=O)(=O)NCC2CCN(C[C@H]3COc4ccc(Cl)cc4O3)CC2)cc1` [Example 8, (S)-(-)-4-acetamido-N-{[1-(7-chloro-1,4-benzodioxan-2-ylmethyl)-4-piperidyl]methyl}benzenesulphonamide], the values for the inhibition constant Ki (in experiment [1]; at 5-HT1A) were 37.2 nM and 45 nM, respectively.

`O=S(=O)(NCC1CCN(C[C@H]2COc3ccc(Cl)cc3O2)CC1)c1ccc(F)cc1` [Example 5, (S)-(-)-N-{[1-(7-chloro-1,4-benzodioxan-2-ylmethyl)-4-piperidyl]methyl}-4-fluorobenzene-sulphonamide]: the inhibitory constant (Ki) in experiment [1] came to 69.8 nM; at 5-HT1A, 37 nM.
